# Data reported in BindingDB's records for patent US20250346597 (Beone Medicines I, 2025).
# How the values were obtained:
# [1] = target: Diacylglycerol kinase zeta (Homo sapiens, UniProt Q13574); assay: Biochemical DGK IC50 Assays
# Procedure: (§1) Enzymatic reactions of DGKζ, DGKα and DGKδ were performed using ADP-Glo assay with lipid micelle substrate. […] Full length DGKα (D21-10BG, SignalChem) and full length DGKδ (D23-10G, SignalChem) were purchased. […] The resulted product was resuspended in buffer containing 25 mM HEPES pH 7.0, 0.5 mM EDTA and 160 mM Octyl P-D glucopyranoside by vigorous mixing and ultrasonic (IID, Scientz). Final concentration in reaction. […] The inhibition activities testing for the compound disclosed herein were carried out at room temperature in assay buffer containing 50 mM HEPES, 10 mM MgCl2, 0.01% BSA, 0.1 mM Na3VO4, 0.005% Tween-20 and 0.01 mM CaCl2. […] 3 μL 2× enzyme solution was added to wells. […] After 1 hour reaction, 5 μL ADP-Glo reagent (Promga V9101) was added and incubated for 40 minutes. 10 μL Kinase Detection reagent was added and incubated for 30 minutes. Luminescence was measured on a microplate reader (PHERAstar FSX, BMG labtech). The IC50s are calculated based on inhibition of enzyme activity in the presence of increasing concentrations of compounds.
# [2] = target: Diacylglycerol kinase alpha (Homo sapiens, UniProt P23743); assay: Biochemical DGK IC50 Assays
# Diacylglycerol kinase alpha, sequence (P23743 whole entry): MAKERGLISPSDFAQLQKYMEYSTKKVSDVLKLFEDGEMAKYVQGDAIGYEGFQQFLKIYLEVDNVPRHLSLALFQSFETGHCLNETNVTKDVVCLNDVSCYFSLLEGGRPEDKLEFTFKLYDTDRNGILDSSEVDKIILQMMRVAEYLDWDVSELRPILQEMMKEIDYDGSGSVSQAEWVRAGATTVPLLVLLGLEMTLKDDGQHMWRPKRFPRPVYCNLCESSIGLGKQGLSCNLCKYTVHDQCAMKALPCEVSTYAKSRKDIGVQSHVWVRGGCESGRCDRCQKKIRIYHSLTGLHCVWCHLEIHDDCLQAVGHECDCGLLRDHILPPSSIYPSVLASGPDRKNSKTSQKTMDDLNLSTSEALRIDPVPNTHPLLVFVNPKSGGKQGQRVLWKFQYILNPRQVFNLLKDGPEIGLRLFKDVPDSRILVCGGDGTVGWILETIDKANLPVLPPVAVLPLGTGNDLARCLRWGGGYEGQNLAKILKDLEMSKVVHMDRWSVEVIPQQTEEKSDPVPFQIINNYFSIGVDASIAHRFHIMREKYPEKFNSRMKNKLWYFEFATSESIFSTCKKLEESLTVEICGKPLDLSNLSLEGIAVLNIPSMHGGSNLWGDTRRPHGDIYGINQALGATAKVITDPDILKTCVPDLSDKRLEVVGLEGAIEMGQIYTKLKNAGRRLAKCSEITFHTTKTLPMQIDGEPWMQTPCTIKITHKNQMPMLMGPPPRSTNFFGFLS
# Procedure: as §1
# Diacylglycerol kinase zeta, sequence (Q13574 as listed by the source): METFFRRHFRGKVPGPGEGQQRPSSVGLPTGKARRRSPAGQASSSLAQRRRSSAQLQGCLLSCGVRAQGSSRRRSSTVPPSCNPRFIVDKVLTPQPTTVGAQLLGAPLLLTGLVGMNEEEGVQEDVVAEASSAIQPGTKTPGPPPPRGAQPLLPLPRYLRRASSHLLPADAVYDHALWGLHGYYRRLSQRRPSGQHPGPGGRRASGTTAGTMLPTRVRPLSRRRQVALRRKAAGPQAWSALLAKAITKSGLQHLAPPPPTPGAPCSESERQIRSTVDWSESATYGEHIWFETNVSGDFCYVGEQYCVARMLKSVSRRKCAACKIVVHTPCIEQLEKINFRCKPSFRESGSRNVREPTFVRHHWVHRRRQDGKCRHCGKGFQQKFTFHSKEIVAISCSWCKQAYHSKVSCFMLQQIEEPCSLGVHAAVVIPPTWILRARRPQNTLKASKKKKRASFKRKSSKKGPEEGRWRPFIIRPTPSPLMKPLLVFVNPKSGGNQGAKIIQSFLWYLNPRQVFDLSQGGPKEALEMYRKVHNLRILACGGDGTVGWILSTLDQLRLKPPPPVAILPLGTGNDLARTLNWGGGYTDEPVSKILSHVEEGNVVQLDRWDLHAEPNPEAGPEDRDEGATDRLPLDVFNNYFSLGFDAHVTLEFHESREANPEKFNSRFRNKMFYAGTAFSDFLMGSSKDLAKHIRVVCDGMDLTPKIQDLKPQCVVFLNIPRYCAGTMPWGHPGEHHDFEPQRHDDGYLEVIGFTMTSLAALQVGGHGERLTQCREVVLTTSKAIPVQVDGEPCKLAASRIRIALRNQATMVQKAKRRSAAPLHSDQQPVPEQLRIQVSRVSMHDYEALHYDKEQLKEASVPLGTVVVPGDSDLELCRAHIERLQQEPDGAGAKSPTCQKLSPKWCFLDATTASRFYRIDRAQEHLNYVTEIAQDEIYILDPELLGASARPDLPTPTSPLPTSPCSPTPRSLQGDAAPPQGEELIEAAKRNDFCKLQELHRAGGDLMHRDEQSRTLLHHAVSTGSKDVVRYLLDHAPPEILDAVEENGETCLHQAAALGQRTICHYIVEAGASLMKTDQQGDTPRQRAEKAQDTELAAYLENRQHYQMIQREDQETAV
SMILES,IC50 [1] [µM],IC50 [2] [µM]
"CC[C@H]1CN(C(C)c2ccc(N)nc2)[C@H](CC)CN1c1cc(=O)n(C)c2cn(CC#N)nc12 (single isomer, unassigned) [US20250346597, Compound A187b]",> 10,–
"CC[C@@H]1CN(C2CC(=O)N(C)C3=CN(CC#N)NC32)[C@@H](CC)CN1C(C)c1ccc(OCCOC)cc1 (stereo partly drawn) [US20250346597, Compound A11]",0.5,0.079
